Reference: PMC7279002, “Novel 3′-Substituted-1′,2′,4′-Oxadiazole Derivatives of 18βH-Glycyrrhetinic Acid and Their O-Acylated Amidoximes: Synthesis and Evaluation of Antitumor and Anti-Inflammatory Potential In Vitro and In Vivo” (International Journal of Molecular Sciences, 2020)
Read-outs that look alike come from different tables or passages of the source.

Experiments:
[1] = tested on: human cervical carcinoma HeLa; assay: MTT cytotoxicity assay, 48 h; format: cell-based; settings: for IC50: MTT, 48 h, read-out: IC50, µM Cervix HeLa; for Selectivity index: HeLa: IC50 in hFF3 / IC50 in HeLa
Experimental: (§1) On the first step of the biological evaluation of novel GA derivatives 3a-h, 4a-h, and 5a-h, we analyzed their cytotoxicity in a panel of cultured mammalian cells, including human cervical carcinoma HeLa and KB-3-1, human duodenal carcinoma HuTu-80, human lung adenocarcinoma A549, murine melanoma B16 cell lines, and nontransformed human fibroblasts hFF3. The cells were treated with derivatives for 48 h and cell viability was evaluated by 3-(4, 5-dimethylthiazol-2-yl)-2, 5-diphenyltetrazolium bromide (MTT) assay. Since the studied compounds contain two types of functional groups at position 3-acetoxy- or the hydroxyl-group, 3-acetoxy-GA 1 and GA-Me were used as references. Additionally, hierarchical clustering of cytotoxic data was carried out in order to reveal groups of compounds with similar cytotoxic profiles (Figure 2A).
(§2) Human cervical carcinoma HeLa and KB-3-1 cells, human duodenal carcinoma HuTu-80 cells, and human lung adenocarcinoma A549 cells were obtained from the Russian Culture Collection (Institute of Cytology, RAS, St. Petersburg, Russia). Melanoma B16-F10 (hereafter, melanoma B16) cells were obtained from the Cell Culture Bank of the Blokhin National Medical Oncology Research Center (Moscow, Russia). Nonmalignant fibroblasts hFF3 and RAW264.7 macrophages were kindly provided by Dr. Olga A. Koval (Institute of Chemical Biology and Fundamental Medicine, SB RAS, Novosibirsk, Russia) and Prof. Dmitry Kuprash (Engelhardt Institute of Molecular Biology, RAS, Moscow, Russia), respectively. The cells were cultured in DMEM (Sigma-Aldrich Inc., St. Louis, MO, USA) supplemented with 10% (v/v) heat-inactivated fetal bovine serum (FBS) (BioloT, St. Petersburg, Russia) and antibiotic–antimycotic solution (100 U/mL penicillin, 100 µg/mL streptomycin, 0.25 µg/mL amphotericin). […] The cells were incubated at 37 °C in a humidified 5% CO2-containing air atmosphere (hereafter referred to as standard conditions). GA derivatives were dissolved in DMSO (stock solutions: 10 mM) and stored at −20 °C prior to use.
(§3) Cells were seeded in tetra- or pentaplicates in 96-well plates at a density of 10^4 (tumor cells and […] fibroblasts) or 10^5 (RAW264.7 cells) cells per well. Cells were incubated under standard conditions for 24 h, followed by their treatment with the investigated derivatives (0.5–50 µM) or corresponding concentrations of DMSO (control) for a further 48 h (tumor cells and fibroblasts) or 24 h (RAW264.7 cells). At the end of incubation period, 10 µL of MTT solution was added to the cells (final concentration: 0.5 mg/mL) and plates were incubated for an additional 2 h under standard conditions. Then, the MTT-containing medium was aspirated and formazan crystals formed in living cells were solubilized with 100 µL of DMSO. The absorbance of each well was read at test and reference wavelengths of 570 and 620 nm, respectively, on a Multiscan RC plate reader (Thermo LabSystems, Helsinki, Finland). The IC50 values (the concentration of compounds leading to a decrease of A570 to 50% of A570^control) were calculated by extrapolation of the dose–response curves. […] A heatmap of SI values was constructed by Microsoft Excel 2010.

[2] = tested on: human duodenal carcinoma HuTu-80; assay: MTT cytotoxicity assay, 48 h; format: cell-based; settings: for IC50: MTT, 48 h, read-out: IC50, µM Duodenum HuTu-80; for Selectivity index: HuTu-80: IC50 in hFF3 / IC50 in HuTu-80
Experimental: as §1, §2, §3

murine melanoma B16 = assay: MTT cytotoxicity assay, 48 h; format: cell-based; settings: for Selectivity index: B16: IC50 in hFF3 / IC50 in B16; for IC50: MTT, 48 h
Experimental: as §1, §2, §3

[3] = tested on: human lung adenocarcinoma A549; assay: MTT cytotoxicity assay, 48 h; format: cell-based; settings: for IC50: MTT, 48 h; for Selectivity index: A549: IC50 in hFF3 / IC50 in A549
Experimental: as §1, §2, §3

[4] = tested on: nontransformed human fibroblasts hFF3; assay: MTT cytotoxicity assay, 48 h; format: cell-based
Experimental: as §1, §2, §3

[5] = tested on: human cervical carcinoma KB-3-1; assay: MTT cytotoxicity assay, 48 h; format: cell-based; settings: for IC50: MTT, 48 h, read-out: IC50, µM Cervix KB-3-1; for Selectivity index: KB-3-1: IC50 in hFF3 / IC50 in KB-3-1
Experimental: as §1, §2, §3

[6] = tested on: HeLa, KB-3-1, HuTu-80, A549, B16 and hFF3 cells; assay: MTT cytotoxicity, summary over the panel of cell lines; format: cell-based; settings: for IC50: median over all tested cell lines, read-out: median IC50
Experimental: as §1, §3

[7] = Homo sapiens, HFF-3, read-out: IC50, µM Fibroblast hFF3

Structure (SMILES) | IC50 ([1]; Homo sapiens, HeLa) [µM] | Selectivity index: HeLa [1] | IC50 ([2]; Homo sapiens, HuTu80) [µM] | Selectivity index: HuTu-80 [2] | Selectivity index: B16 (murine melanoma B16) | IC50 (murine melanoma B16; Mus musculus) [µM] | IC50 ([3]; Homo sapiens, A549) [µM] | Selectivity index: A549 [3] | IC50 [4, 7] [µM] | IC50 ([5]; Homo sapiens, KB 3-1) [µM] | Selectivity index: KB-3-1 [5] | IC50 [6] [µM] | melting point | IC50 [1] [µM] | IC50 [2] [µM] | IC50 (murine melanoma B16) [µM] | IC50 [3] [µM] | IC50 ([4]; read-out: IC50, µM Fibroblast hFF3) [µM] | IC50 [5] [µM] | median SI ([6]; in all tumor cells)
CC(=O)O[C@H]1CC[C@@]2(C)C(CC[C@]3(C)C2C(=O)C=C2[C@@H]4C[C@@](C)(C(=O)O)CC[C@]4(C)CC[C@]23C)C1(C)C (stereo partly drawn) [Compound 1, 3β-acetoxy-11-oxo-18βH-olean-12-en-29-oic acid, reference compound] | 12.7 ± 1.1 | 1.1 | 2.9 ± 0.1 | 4.7 | 1.2 | 11.5 ± 1.5 | 15.9 ± 2.3 | 0.9 | 13.6 ± 2.2 | 7.4 ± 0.6 | 1.8 |  |  |  |  |  |  |  |  | 
CC(=O)O[C@H]1CC[C@@]2(C)C(CC[C@]3(C)C2C(=O)C=C2[C@@H]4C[C@@](C)(C(=O)O/N=C(\C)N)CC[C@]4(C)CC[C@]23C)C1(C)C (stereo partly drawn) [Compound 3a] | 2.6 ± 0.1 | 0.7 | 2.3 ± 0.1 | 0.7 | 0.3 | 6.8 ± 0.2 | 2.6 ± 0.1 | 0.7 | 1.7 ± 0.1 | 5.9 ± 0.2 | 0.3 | 2.6 | 112.8 to 117.3 °C |  |  |  |  |  |  | 
CC/C(N)=N\OC(=O)[C@@]1(C)CC[C@]2(C)CC[C@]3(C)C(=CC(=O)C4[C@@]5(C)CC[C@H](OC(C)=O)C(C)(C)C5CC[C@]43C)[C@@H]2C1 (stereo partly drawn) [Compound 3b] | 3.3 ± 0.2 | 0.9 | 2.4 ± 0.2 | 1.2 | 0.4 | 7.2 ± 0.6 | 7.3 ± 3 | 0.4 | 2.9 ± 0.3 | 6.7 ± 0.7 | 0.4 |  | 120 °C (dec.) |  |  |  |  |  |  | 
CC(=O)O[C@H]1CC[C@@]2(C)C(CC[C@]3(C)C2C(=O)C=C2[C@@H]4C[C@@](C)(C(=O)O/N=C(/N)C(C)C)CC[C@]4(C)CC[C@]23C)C1(C)C (stereo partly drawn) [Compound 3c] | 3 ± 0.2 | 0.9 | 2.1 ± 0.2 | 1.2 | 0.5 | 5.6 ± 0.2 | 2.6 ± 0.1 | 1.0 | 2.6 ± 0.1 | 4.9 ± 0.4 | 0.5 |  | 120.3 °C (dec.) |  |  |  |  |  |  | 
CC(=O)O[C@H]1CC[C@@]2(C)C(CC[C@]3(C)C2C(=O)C=C2[C@@H]4C[C@@](C)(C(=O)O/N=C(/N)c5ccccc5)CC[C@]4(C)CC[C@]23C)C1(C)C (stereo partly drawn) [Compound 3e] | 5.8 ± 0.8 | 1.3 | 7.5 ± 0.1 | 1.0 | 0.4 | 16.4 ± 0.7 | 4.9 ± 0.4 | 1.5 | 7.3 ± 0.3 | 16 ± 1.4 | 0.5 |  | 144.6 to 145 °C |  |  |  |  |  |  | 
CC(=O)O[C@H]1CC[C@@]2(C)C(CC[C@]3(C)C2C(=O)C=C2[C@@H]4C[C@@](C)(C(=O)O/N=C(/N)c5ccccn5)CC[C@]4(C)CC[C@]23C)C1(C)C (stereo partly drawn) [Compound 3f] | 6.4 ± 1 | 1.2 | 6.9 ± 0.3 | 1.1 | 0.3 | 22.5 ± 3.1 | 7.7 ± 1.8 | 1.0 | 7.6 ± 1 | 10.9 ± 2.2 | 0.7 |  | 165.8 °C (dec.) |  |  |  |  |  |  | 
CC(=O)O[C@H]1CC[C@@]2(C)C(CC[C@]3(C)C2C(=O)C=C2[C@@H]4C[C@@](C)(C(=O)O/N=C(/N)c5cccnc5)CC[C@]4(C)CC[C@]23C)C1(C)C (stereo partly drawn) [Compound 3g] | 6.1 ± 1 | 1.4 | 4.9 ± 0.3 | 1.7 | 1.0 | 8.9 ± 1.1 | 5.6 ± 0.9 | 1.5 | 8.5 ± 0.3 | 10 ± 0.9 | 0.9 |  | 149.7 °C (dec.) |  |  |  |  |  |  | 
CC(=O)O[C@H]1CC[C@@]2(C)C(CC[C@]3(C)C2C(=O)C=C2[C@@H]4C[C@@](C)(C(=O)O/N=C(/N)c5ccncc5)CC[C@]4(C)CC[C@]23C)C1(C)C (stereo partly drawn) [Compound 3h] | 7.1 ± 1.4 | 1.6 | 5.6 ± 0.1 | 2.0 | 1.4 | 7.8 ± 1.9 | 7.1 ± 1.6 | 1.6 | 11.1 ± 0.5 | 7 ± 1.4 | 1.6 |  | 161.3 °C (dec.) |  |  |  |  |  |  | 
CC1(C)C2CC[C@]3(C)C(C(=O)C=C4[C@@H]5C[C@@](C)(c6nc(-c7cccnc7)no6)CC[C@]5(C)CC[C@]43C)[C@@]2(C)CC[C@@H]1O (stereo partly drawn) [Compound 5g, 30-nor-3β-hydroxy-11-oxo-20-(3′-(pyridin-3′′-yl)-1′,2′,4′-oxadiazol-5′-yl)-18βH-olean-12-en] | 4.6 ± 0.3 | > 10.9 | 4.7 ± 0.2 | > 10.6 |  | > 50 | > 50 |  | > 50 | 16.9 ± 1.4 | > 3.0 |  | 231.6 °C (dec.) |  |  |  |  |  |  | 
CC1(C)C2CC[C@]3(C)C(C(=O)C=C4[C@@H]5C[C@@](C)(c6nc(-c7ccncc7)no6)CC[C@]5(C)CC[C@]43C)[C@@]2(C)CC[C@@H]1O (stereo partly drawn) [Compound 5h, 30-nor-3β-hydroxy-11-oxo-20-(3′-(pyridin-4′′-yl)-1′,2′,4′-oxadiazol-5′-yl)-18βH-olean-12-en] | 3.5 ± 0.1 | > 14.3 | 4.7 ± 0.4 | > 10.6 |  | > 50 | > 50 |  | > 50 | 4.9 ± 0.3 | > 10.2 |  | 129.5 to 129.9 °C |  |  |  |  |  |  | 
COC(=O)[C@@]1(C)CC[C@]2(C)CC[C@]3(C)C(=CC(=O)[C@@H]4[C@@]5(C)CC[C@H](O)C(C)(C)[C@@H]5CC[C@]43C)[C@@H]2C1 [GA-Me, reference compound] |  | 6.1 |  | 10.9 | 10.9 |  |  | 8.2 |  |  | 10.9 | 1.1 |  | 0.9 ± 0.1 | 1.6 ± 0.5 | 0.9 ± 0.1 | 1.2 ± 0.1 | 9.8 ± 1 | 0.9 ± 0.1 | 10.9
